The values that follow come from patent US10975069B2, “Sigma-2 receptor ligand drug conjugates as antitumor compounds, methods of synthesis and uses thereof” (priority 2014, dated 2021).

Test [1] concerns SYO-1. In words: Viability assay, 24 hours treatment, synovial sarcoma cells. The format is cell-based. As to the method:
(§1) In these experiments, viability assays after 24 hours treatment of human and murine pancreatic cancer cell lines and synovial sarcoma cell lines with SW V-49s or its parent compounds SV119 and Erastin, both singly and in combination, were performed. […] In comparison.
Synovial sarcoma cell lines (FIG. 4F, SYO-1, ME1 deficient) are so sensitive to SW V-49s that it was difficult to measure the minimal drug concentration required to kill 50% of the cancer cells, but the measured IC50 was approx. 1.0 μM.
AsPC-1 and SYO-1 cells were plated in 96 well plate overnight then treated with similar concentrations of Erastin for 24 hours. Viability assay was performed after 24 hours. […] (p<0.0001), (FIG. 10).

For test [2], the system named is MIA PaCa-2. In words: Viability assay (CELLTITER-GLO), 24 hours treatment. The test is classed as cell-based, human. The protocol: as §1
(§2) Cytotoxicity of the drugs was evaluated by CELLTITER-GLO®. Luminescent cell viability assay (Promega, Madison, Wis.). Pancreatic cell lines were plated at a density of 2×10^4/well in white 96 well, clear bottom plates for 24 hours prior to treatment. Drugs were dissolved in DMSO and serially diluted in culture medium to achieve the final concentration of DMSO less than 1%. Cells were then treated for 24 hours and 100 μl of the CELLTITER-GLO® reagent was added to each well. The contents of the plates were mixed using an orbital shaker and subsequently incubated for 10 minutes at room temperature. Luminescence signal was measured using a multi-mode microplate reader (BioTek instruments. Winooski, Vt.). Different drug concentrations were assayed in triplicate. To evaluate the efficacy of the drugs, IC50 of the compounds was calculated on a panel of human and mouse derived pancreatic cancer cell lines in vitro. Cells were treated for 24 hours with SW V-49s, SV119, Erastin, and an equimolar mixture of SV119 and Erastin, then CELLTITER-GLO® viability assay was performed.

The test system of test [3] is PANC-1. The test is described as above. The format is cell-based, human. The protocol:
as §1, §2

Test [4] relates to BxPC-3. The test is described as above. The format is cell-based, human. As to the method:
as §1, §2

Test [5] deals with reactive oxygen species (ROS). Kind of test: Reactive oxygen species (ROS) assay in AsPC-1 cells. The conditions noted are these: 8 μM; for increase in ROS: 30 min, compared to Erastin, SV119 or combination, FIG. 6; for ROS level compared to others: one hour, FIG. 11B. The test is classed as cell-based, human. The protocol:
In FIG. 6, results are shown for reactive oxygen species (ROS) assays of Aspc-1 treated with 8 μM 8 μM SW V-49s, 8 μM Erastin, 8 μM SV119, or 8 μM of an equimolar mixture of Erastin and SV119, or a positive control for 30 min. […] Parent compounds SV119 and Erastin, applied to cells either singly or in combination, had no effect at the same concentration.
ROS measurement was performed using Total ROS/Superoxide Detection Kit (Enzo life sciences, Farmingdale, N.Y.) according to the manufacturer's instructions. Briefly. As PC-1 cells were seeded at a density of 2×10^4 cells/well in a black wall clear bottom 96-well plate for 24 hours. Compounds were dissolved in DMSO and diluted in culture medium to achieve a final concentration of DMSO less than 1%. AsPC-1 cells were treated with 8 μM of SV119, Erastin, and equimolar mixture of SV119 and Erastin. ROS assay was performed one hour after treatment. Cells were treated for one hour, then media was removed and 100 μL/well of ROS/Superoxide Detection Mix was added. Fluorescence signal was measured using a multi-mode microplate reader (Bio-Tek, Winooski, Vt.). The assay was performed in 6 replicates.

The mark [6] stands for this setting: 24 hours treatment, SYO-1, ME1 deficient, FIG. 4F, read-out: IC50.

Read-outs that look alike come from different tables or passages of the source.

For `CCOc1ccccc1-n1c(C(C)N2CCN(C(=O)COc3ccc(Cl)cc3)CC2)nc2ccccc2c1=O` (stereo not shown) [Erastin], the death of cells in test [1] (40 μM, 24 hours, SYO-1 cells, FIG. 10) is listed as 84%. For the same compound, the IC50 in test [1] (24 h) is > 16 µM; in test [2] (Homo sapiens, MIA PaCa-2, 24 h, read-out: IC50 ± SEM, MiaPaCa-2), > 150 µM; in test [3] (Homo sapiens, PANC-1, 24 h, read-out: IC50 ± SEM, PANC-1) it was > 150 µM; in test [4] (Homo sapiens, BXPC-3, 24 h, read-out: IC50 ± SEM, BxPC-3), > 150 µM. Moreover, the “increase in ROS” value in test [5] is given as “no effect”. For the same compound, the “ROS level compared to others” value in test [5] is “no increase”.

`CCOc1ccccc1-n1c(CN2CCN(C(=O)COc3ccc(CNCCCCCCN4C5CCCC4CC(OC(=O)Nc4cc(C)ccc4OC)C5)cc3)CC2)nc2ccccc2c1=O.O=C(O)C(=O)O` (stereo not shown) [SW V-49s]: the IC50 in test [1] (setting [6]) was ~1 µM; in test [2] (Homo sapiens, MIA PaCa-2, 24 h, read-out: IC50 concentration) it was 2.3 µM; in test [2] (Homo sapiens, MIA PaCa-2, 24 hours, mean ± SEM, n ≥ 3, read-out: IC50 ± SEM, MiaPaCa-2), 3 ± 0.3 µM; in test [3] (Homo sapiens, PANC-1, 24 h, read-out: IC50 concentration), 4.3 µM; in test [3] (Homo sapiens, PANC-1, 24 hours, mean ± SEM, n ≥ 3, read-out: IC50 ± SEM, PANC-1) it was 4.1 ± 0.2 µM; in test [4] (Homo sapiens, BXPC-3, 24 h, read-out: IC50 concentration) it was 2.3 µM. The IC50 in test [4] (Homo sapiens, BXPC-3, 24 hours, mean ± SEM, n ≥ 3, read-out: IC50 ± SEM, BxPC-3) stood at 2.5 ± 0.1 µM. For the same compound, the “increase in ROS” value in test [5] was 50%. Besides, the “ROS level compared to others” value in test [5] came out at 1.5 fold.

Turning to `COc1ccc(C)cc1NC(=O)OC1C[C@H]2CCC[C@@H](C1)N2CCCCCCN` (stereo partly shown) [SV119, reference compound], the IC50 was 6.2 µM in test [1] (setting [6]); 94.5 ± 1.9 µM in test [2] (24 hours, mean ± SEM, n ≥ 3, read-out: IC50 ± SEM, MiaPaCa-2); 111 ± 5.3 µM in test [3] (24 hours, mean ± SEM, n ≥ 3, read-out: IC50 ± SEM, PANC-1); 54.2 ± 2.6 µM in test [4] (24 hours, mean ± SEM, n ≥ 3, read-out: IC50 ± SEM, BxPC-3). In test [5], the “increase in ROS” value was “no effect”. Besides, in test [5], the “ROS level compared to others” value is on record as “no increase”.
